These results are taken from US20130059850A1, “AZA-INDOLE DERIVATIVES USEFUL AS MODULATORS OF FAAH” (MERCK SHARP & DOHME CORP., priority 2010, published 2013).

Where “and” joins values, the source holds several entries; their conditions need not be identical. Equal entries are not always repeated.

The target in assay [1] is T1, human FAAH (Fatty Acid Amide Hydrolase) (Homo sapiens, UniProt O00519).
T1 construct: The full length FAAH was subcloned into the mammalian expression vector, pcDEF.neo, using XbaI and EcoRI restriction sites; expressed in transfected cells
T1 sequence (O00519 1-579): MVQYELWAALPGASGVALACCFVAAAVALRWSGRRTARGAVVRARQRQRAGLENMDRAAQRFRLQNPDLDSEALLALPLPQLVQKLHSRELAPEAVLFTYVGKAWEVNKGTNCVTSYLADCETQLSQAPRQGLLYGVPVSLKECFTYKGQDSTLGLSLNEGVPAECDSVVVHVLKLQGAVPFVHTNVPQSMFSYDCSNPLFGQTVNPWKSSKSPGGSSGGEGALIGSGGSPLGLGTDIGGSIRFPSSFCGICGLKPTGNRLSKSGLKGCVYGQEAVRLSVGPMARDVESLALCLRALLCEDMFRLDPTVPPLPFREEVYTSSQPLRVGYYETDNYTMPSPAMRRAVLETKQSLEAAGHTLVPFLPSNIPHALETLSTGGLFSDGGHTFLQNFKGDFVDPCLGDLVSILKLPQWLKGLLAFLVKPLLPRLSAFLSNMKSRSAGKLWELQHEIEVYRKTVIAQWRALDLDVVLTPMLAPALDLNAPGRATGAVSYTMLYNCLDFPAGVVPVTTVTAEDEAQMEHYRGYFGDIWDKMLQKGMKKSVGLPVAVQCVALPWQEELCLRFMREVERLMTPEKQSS
The experiment in a line: FAAH whole cell assay on CHO cells expressing human FAAH (human WC), AAMCA fluorescent substrate. Type of assay: cell-based. Particulars: human FAAH_CHO whole cell. An excerpt:
(§1) To assist in assay development stable cell lines for human, murine and rat full length FAAH were developed. Human FAAH cDNA (Accession No: NM_001441.1) was purchased from Origene (Rockville, Md.). The full length FAAH was subcloned into the mammalian expression vector, pcDEF.neo, using XbaI and EcoRI restriction sites and used for stable cell line generation.
Murine (accession number NM_010173) and Rat FAAH (accession number NM_024132) was amplified by reverse transcriptase polymerase chain reaction (RT-PCR) from brain cDNA (BD Biosciences, San Jose, Calif.) using primers 1 and 2 or primers 1 and 3 respectively (see Table). The resulting PCR product was ligated into pCR4 TOPO and DNA sequence confirmed. The full length murine FAAH was subcloned into the mammalian expression vector, pcDEFneo using either EcoRI (murine) or KpnI and EcoRI (rat) restriction sites. Chinese hamster ovary cells (CHO) were transfected following manufacturers protocol (AMAXA). Forty eight hours post transfection, cells were trypsinized and transferred to 96 well plates in Iscove's DMEM media supplemented with 2 mM Glutamine, 10% fetal calf serum, 1 mg/ml geneticin and HT Supplement (0.1 mM sodium hypoxanthine, 0.016 mM thymidine) in order to isolate single clones. Following selection in geneticin, individual clones were selected and FAAH activity was assessed using a whole cell fluorescent anandamide assay, modified from Ramarao et al (2005). Following removal of tissue culture media cells were dislodged following addition of Cellstripper (Mediatech, Inc. Manassas, Va.) and transferred to 96 well black clear bottom assay plate, centrifuged at 1,000 rpm for 3 mins and media removed and replaced with assay buffer (50 mM Tris pH8.0, 1 mM EDTA, 0.1% fatty acid free BSA). The reaction was initiated by addition of fluorescent substrate, AMC Arachidonoyl Amide (Cayman Chemical, Ann Arbor, Mich.) to 1 μM and reaction allowed to proceed for 2 hours at room temperature. Release of fluorescence was monitored in a CytoFluor Multiplate Reader. Cells expressing the highest amount of FAAH activity were selected for study with FAAH inhibitors.
(§2) (American Radiolabeled Chemicals; 1 mCi/ml) with FAAH (Life Sciences (1995), 56, 1999-2005 and Journal of Pharmacology and Experimented Therapeutics (1997), 283, 729-734), Analytical. Biochemistry (2003), 318, 270-5. In addition, routine assays were performed monitoring hydrolysis of arachidonyl-7-amino-4-methylcoumarin amide (AAMCA) by following increase in fluorescence upon release of 7-amino 4-methyl coumarin (λEX=355 nm, μEM=460 nm). Analytical. Biochemistry (2005). 343, 143-51
Assays are performed on either cell lysate or microsome fractions prepared as described or in whole cell format employing either the fluorescent substrate AAMCA (Cayman chemical, Ann Arbor, Mich.,) or ^3H-anandamide ([ETHANOLAMINE-1-3H] American Radiolabeled Chemicals; 1 mCi/ml). The cell lysate or microsome assay is performed in black PerkinElmer OptiPlates-384F by adding FAAH_CHO (whole cell (human whole cell or human WC), cell lysate (human cell lysate or human LY) or microsome) in assay buffer (50 mM Phosphate, pH 8.0, 1 mM EDTA, 200 mM KCl, 0.2% glycerol, 0.1% fatty acid free BSA) to each well, followed by either DMSO or compound and allowed to incubate at 22-25° C. for fifteen minutes. AAMCA substrate was used to achieve a final concentration of 1 μM and reaction allowed to proceed at room temperature for 1-3 hours. Fluorescent release as a measure of FAAH activity was monitored by reading the plate in a Envision plate Reader (Ex: 360/40 nM; Em: 460/40 nM). Whole cell assay is conducted with cells harvested after rinsing tissue culture flasks three times with Ca^++Mg^++ free PBS, incubating for […] in Enzyme free dissociation media and centrifuging for 5 minutes at 1,000 rpm in table top centrifuge. […]

Assay [2] deals with T1, human FAAH (Fatty Acid Amide Hydrolase). The assay can be described thus: FAAH enzyme assay on CHO cell lysate expressing human FAAH (human LY), AAMCA fluorescent substrate. Type of assay: biochemical. Particulars: human FAAH_CHO cell lysate.
Excerpt: as §1
CHO cells expressing FAAH were used to prepare either crude cell lysate or microsome fractions. To harvest cells, tissue culture media was decanted, the monolayer washed three times with Ca^++Mg^++ free PBS and cells recovered after […] in enzyme free dissociation media (Millipore Corp, Billerica, Mass.). Cells were collected by centrifuging at 2000 rpm for 15 min. and the cell pellet re-suspended with 50 mM HEPES (pH 7.4) containing 1 mM EDTA and the protease inhibitors aprotinin (1 mg/ml) and leupeptin (100 μM). The suspension was sonicated at 4° C. and the cell lysate recovered after centrifuging at 12,000×g (14,600 rpm, SS34 rotor) for 20 min at 4° C. to form a crude pellet of cell debris, nuclei, peroxisomes, lysosomes, and mitochondria; the supernatant or cell lysate was used for FAAH enzyme assay. In some cases, microsomes fractions enriched in FAAH were prepared by centrifuging the cell lysate further at 27,000 rpm (100,000×g) in SW28 rotor for 50 minutes at 4° C. The pellet containing FAAH-enriched microsomes was re-suspend in 50 mM HEPES, (pH 7.4) 1 mM EDTA, and any remaining DNA sheared by passage of material through a 23 gauge needle and aliquots of enzyme were store at −80° C. prior to use.
as §2
Assays are performed on either cell lysate or microsome fractions prepared as described or in whole cell format employing either the fluorescent substrate AAMCA (Cayman chemical, Ann Arbor, Mich.,) or ^3H-anandamide ([ETHANOLAMINE-1-3H] American Radiolabeled Chemicals; 1 mCi/ml). The cell lysate or microsome assay is performed in black PerkinElmer OptiPlates-384F by adding FAAH_CHO (whole cell (human whole cell or human WC), cell lysate (human cell lysate or human LY) or microsome) in assay buffer (50 mM Phosphate, pH 8.0, 1 mM EDTA, 200 mM KCl, 0.2% glycerol, 0.1% fatty acid free BSA) to each well, followed by either DMSO or compound and allowed to incubate at 22-25° C. for fifteen minutes. AAMCA substrate was used to achieve a final concentration of 1 μM and reaction allowed to proceed at room temperature for 1-3 hours. Fluorescent release as a measure of FAAH activity was monitored by reading the plate in a Envision plate Reader (Ex: 360/40 nM; Em: 460/40 nM). Whole cell assay is conducted with cells harvested after rinsing tissue culture flasks three times with Ca^++Mg^++ free PBS, incubating for […] in Enzyme free dissociation media and centrifuging for 5 minutes at 1,000 rpm in table top centrifuge. Cells are resuspended in assay buffer at desired cell number in (4×10^4 cells/assay in 96-well format; 1×10^4 cells/assay in 384-well format) and assayed as described.

Broadly, the IC50 is the point on the concentration scale where inhibition reaches its midpoint. Read a low IC50 as higher potency. Take `Cn1cccc2c(Sc3ccc(Cl)cc3)c([C@H]3CC[C@H](O)CC3)nc1-2` [Example E7]: the values for the IC50 in assay [1] and in assay [2] were 18.8 nM and 9.92 nM, respectively.

With `Clc1ccc(Sc2c(C3=CCCCC3)[nH]c3ncccc23)cc1` [Example B40], the IC50 worked out at 68.4 nM in assay [1] and 15.9 nM in assay [2].

`O=C(NCc1ccc(O)c(O)c1)c1[nH]c2ncccc2c1Sc1ccc(Cl)cc1` [Example C11]: the figures for the IC50 in assay [1] and in assay [2] were 107 nM and 15.2 nM, respectively.

With `CC(C)(C)NS(=O)(=O)c1ccc(-c2[nH]c3ncccc3c2Sc2ccc(Cl)cc2)cc1` [Example A22], the results for the IC50 in assay [1] and in assay [2] were 370 nM and 117 nM, respectively.

For the compound `NCc1ccc(-c2[nH]c3ncccc3c2Sc2ccc(Cl)cc2)cc1` [Example A30], the values for the IC50 in assay [1] and in assay [2] were 833 nM and 56.3 nM, respectively.

Turning to `O=C(c1[nH]c2ncccc2c1Sc1ccc(Cl)cc1)N1CCc2ccncc21` [Example C12], the IC50 in assay [1] amounted to 2680 nM; in assay [2], 2080 nM.

`O=C1Cc2cc(-c3[nH]c4ncccc4c3Sc3ccc(Cl)cn3)ccc2N1` [Example A33]: the IC50 amounted to 405 nM in assay [1] and 134 nM in assay [2].

Turning to `CCNC(=O)C1CC=C(c2[nH]c3ncccc3c2Sc2ccc(Cl)cc2)CC1` (stereo not shown) [Example B48], the 50% inhibitory concentration (IC50) in assay [1] turned out to be 29.1 nM; in assay [2], 9.5 nM.

As for `Clc1ccc(Sc2c(-c3cccc4[nH]ccc34)[nH]c3ncccc23)cc1` [Example B10], the IC50 is 20.7 nM in assay [1] and 3.88 nM in assay [2].

For `CC(=O)c1ccc(-c2[nH]c3ncccc3c2Sc2ccc(Cl)cc2)s1` [Example B29], the values for the IC50 in assay [1] and in assay [2] were 41.1 nM and 10.2 nM, respectively.

`COc1ccc(-c2[nH]c3ncccc3c2Sc2ccc(Cl)cn2)cn1` [Example A24]: the IC50 was found to be 128 nM in assay [1] and 30.4 nM in assay [2].

`C[S+]([O-])c1ccc(-c2[nH]c3ncccc3c2Sc2ccc(Cl)cc2)cn1` (stereo not shown) [Example A36, 3-[(4-chlorophenyl)sulfanyl]-2-[6-(methylsulfinyl)pyridin-3-yl]-1H-pyrrolo[2,3-b]pyridine]: the values for the IC50 in assay [1] and in assay [2] were 28.9 nM and 3.35 nM, respectively.

For the compound `CC(C)(O)/C=C/c1[nH]c2ncccc2c1Sc1ccc(Cl)cc1` [Example B34], the IC50 in assay [1] stood at 1110 nM; in assay [2] it was 213 nM.

For `Clc1ccc(Sc2c(-c3ccccn3)[nH]c3ncccc23)cc1` [Example F9], the values for the IC50 in assay [1] and in assay [2] were 1110 nM and 339 nM, respectively.

As to `CC(C)(O)c1ccc(-c2[nH]c3ncccc3c2Sc2ccc(Cl)cn2)cc1` [Example A13], the IC50 was 73.2 nM in assay [1] and 17.8 nM in assay [2].

For the compound `OC1CC=C(c2[nH]c3ncccc3c2Sc2ccc(Cl)cn2)CC1` (stereo not shown) [Example A28], the IC50 in assay [1] was 31.6 nM and 60.4 nM; in assay [2] it was 11.8 nM and 20.5 nM.

On to `Clc1ccc(Sc2c(-c3ccc4c(c3)OCO4)[nH]c3ncccc23)cc1` [Example B4, 2-(1,3-benzodioxol-5-yl)-3-[(4-chlorophenyl)sulfanyl]-1H-pyrrolo[2,3-b]pyridine], for which the IC50 in assay [1] is 4.62 nM; in assay [2], 0.508 nM.

For `Clc1ccc(Sc2c(-c3ccc4c(c3)OCCO4)[nH]c3ncccc23)cc1` [Example B6, 3-[(4-chlorophenyl)sulfanyl]-2-(2,3-dihydro-1,4-benzodioxin-6-yl)-1H-pyrrolo[2,3-b]pyridine], the IC50 in assay [1] amounted to 11.8 nM; in assay [2], 4.42 nM.

Turning to `COc1cc(-c2nc3n(C)cccc-3c2Sc2ccc(Cl)cc2)cnc1OC` [Example E8], the IC50 is 72.7 nM in assay [1] and 12.4 nM in assay [2].

In the case of `N#CC1CC=C(c2[nH]c3ncccc3c2Sc2ccc(Cl)cc2)CC1` (stereo not shown) [Example B16], the IC50 was determined as 119 nM in assay [1] and 21.7 nM in assay [2].

`Cc1n[nH]c(C)c1-c1[nH]c2ncccc2c1Sc1ccc(Cl)cc1` [Example B19]: the figures for the IC50 in assay [1] and in assay [2] were 364 nM and 65.6 nM, respectively.

Take `Cn1ccc2cc(-c3[nH]c4ncccc4c3Sc3ccc(Cl)cc3)ccc21` [Example B11]: the figures for the IC50 in assay [1] and in assay [2] were 10.2 nM and 3.29 nM, respectively.

For `COc1ccc(-c2[nH]c3ncccc3c2Sc2ccc(Cl)cc2)cc1` [Example B8], the IC50 in assay [1] was 10.3 nM; in assay [2], 2.34 nM.

With `COc1ccc(-c2[nH]c3ncccc3c2Sc2ccc(Cl)cc2)cc1OC` [Example B9], the half-maximal inhibitory concentration (IC50) came to 3.83 nM in assay [1] and 1.43 nM in assay [2].

`Cn1cccc2c(Sc3ccc(Cl)cc3)c(-c3ccc(C(O)C(F)(F)F)cc3)nc1-2` (stereo not shown) [Example E10]: the IC50 in assay [1] was 70.6 nM; in assay [2] it was 18.5 nM.

In the case of `Cn1c(-c2ccc(C(O)C(F)(F)F)cc2)c(Sc2ccc(Cl)cc2)c2cccnc21` (stereo not shown) [Example E33], the figures for the IC50 in assay [1] and in assay [2] were 186 nM and 106 nM, respectively.
